{"source": "patent US11324768B2", "about": "“Applications of triacetyl-3-hydroxyl phenyl adenosine in treating vascular inflammations or improving vascular endothelium functions” (priority 2016, dated 2022)", "system": "thoracic aorta", "assay": "Endothelial function of thoracic aorta in ApoE−/− mice (vascular ring, Ach / SNP relaxation)", "format": "in vivo", "procedure": "After 1 week of adaptive feeding, the animals were randomly divided into 7 groups according to body weight: normal control group, model control group A769662 (30 mg/kg) administration group, metformin (260 mg/kg) administration group, IMM-H007 low, medium, and high administration groups (50, 100, 200 mg/kg), 8 in each group, and were given a high-fat diet (78.6% basal diet, 10% lard, 1.0% cholesterol, 10% egg yolk powder, and 0.4% bile salt), and simultaneously administered intragastrically at a dose of 0.1 ml/10 g body weight, and were continuously administered and fed for 8 weeks to establish an atherosclerosis model.\nThe mice were anesthetized. The thoracic aorta was quickly taken, after carefully stripping the surrounding tissue, was cut into a vascular ring with a length of about 3 mm. The vascular ring was carefully hung on a tonotransducer, given an initial tension of 0.5 g and equilibrated for 90 minutes or more. During the equilibration process, the fluid was replaced every 20 minutes, aeration was maintained and the temperature was maintained at 37° C. The vascular ring was equilibrated for about 1 hour and stimulated twice with saturated KCl (60 mM) to detect whether the blood vessel was active. After vasoconstriction was stabilized, KCl was washed away immediately. After the last replacement of the fluid, the vascular ring was equilibrated for 20 minutes, given phenylephrine 1 μM to stimulate vasoconstriction, and after vasoconstriction was stabilized, it was cumulatively administered with acetylcholine (Ach, 1×10^−10 to […]) and sodium nitroprusside (SNP, 10^−10 to 10^−4 M) to record the vasodilation curve. Vasodilation rate=[PE-induced vascular tone (g)-vascular tension after addition of ACh (g)][…][PE contraction-induced tension (g)-basal vascular tone (g)]×100%."}
{"molecule": "CC(=O)OCC1OC(n2cnc3c(Nc4cccc(O)c4)ncnc32)C(OC(C)=O)C1OC(C)=O", "note": "(stereo not drawn) [IMM-H007, 2′,3,′ 5′-triacetyl-N^6(3-hydroxyphenyl)adenosine]", "values": [{"measurement": "sodium nitroprusside endothelium-independent relaxation of aortic vessel", "setting": "50 mg/kg, 1 × 10^−4 M SNP", "result": "97.8 ± 4.9", "unit": "%"}, {"measurement": "acetylcholine endothelium-dependent relaxation of aortic vessel", "setting": "50 mg/kg, 1 × 10^−5 M Ach", "result": "91.0 ± 2.3", "unit": "%"}, {"measurement": "sodium nitroprusside endothelium-independent relaxation of aortic vessel", "setting": "50 mg/kg, 1 × 10^−5 M SNP", "result": "89.4 ± 6.8", "unit": "%"}, {"measurement": "acetylcholine endothelium-dependent relaxation of aortic vessel", "setting": "50 mg/kg, 1 × 10^−6 M Ach", "result": "67.5 ± 11.0", "unit": "%"}, {"measurement": "sodium nitroprusside endothelium-independent relaxation of aortic vessel", "setting": "50 mg/kg, 1 × 10^−6 M SNP", "result": "87.2 ± 10.1", "unit": "%"}, {"measurement": "acetylcholine endothelium-dependent relaxation of aortic vessel", "setting": "50 mg/kg, 1 × 10^−7 M Ach", "result": "54.1 ± 18.8", "unit": "%"}, {"measurement": "sodium nitroprusside endothelium-independent relaxation of aortic vessel", "setting": "50 mg/kg, 1 × 10^−7 M SNP", "result": "68.3 ± 20.5", "unit": "%"}, {"measurement": "acetylcholine endothelium-dependent relaxation of aortic vessel", "setting": "50 mg/kg, 1 × 10^−8 M Ach", "result": "39.2 ± 14.0", "unit": "%"}, {"measurement": "sodium nitroprusside endothelium-independent relaxation of aortic vessel", "setting": "50 mg/kg, 1 × 10^−8 M SNP", "result": "58.4 ± 13.8", "unit": "%"}, {"measurement": "acetylcholine endothelium-dependent relaxation of aortic vessel", "setting": "50 mg/kg, 1 × 10^−9 M Ach", "result": "29.3 ± 11.2", "unit": "%"}, {"measurement": "sodium nitroprusside endothelium-independent relaxation of aortic vessel", "setting": "50 mg/kg, 1 × 10^−9 M SNP", "result": "43.1 ± 24.6", "unit": "%"}, {"measurement": "acetylcholine endothelium-dependent relaxation of aortic vessel", "setting": "50 mg/kg, 1 × 10^−10 M Ach", "result": "11.6 ± 7.0", "unit": "%"}, {"measurement": "sodium nitroprusside endothelium-independent relaxation of aortic vessel", "setting": "50 mg/kg, 1 × 10^−10 M SNP", "result": "18.0 ± 16.3", "unit": "%"}, {"measurement": "acetylcholine endothelium-dependent relaxation of aortic caused by high fat", "setting": "50 mg/kg, compared with the model control group", "result": "significantly improve"}, {"measurement": "sodium nitroprusside endothelium-independent relaxation of aortic vessel", "setting": "200 mg/kg, 1 × 10^−4 M SNP", "result": "97.9 ± 10.8", "unit": "%"}, {"measurement": "acetylcholine endothelium-dependent relaxation of aortic vessel", "setting": "200 mg/kg, 1 × 10^−5 M Ach", "result": "97.8 ± 8.2", "unit": "%"}, {"measurement": "sodium nitroprusside endothelium-independent relaxation of aortic vessel", "setting": "200 mg/kg, 1 × 10^−5 M SNP", "result": "95.4 ± 8.5", "unit": "%"}, {"measurement": "acetylcholine endothelium-dependent relaxation of aortic vessel", "setting": "200 mg/kg, 1 × 10^−6 M Ach", "result": "87.4 ± 10.9", "unit": "%"}, {"measurement": "sodium nitroprusside endothelium-independent relaxation of aortic vessel", "setting": "200 mg/kg, 1 × 10^−6 M SNP", "result": "94.1 ± 20.6", "unit": "%"}, {"measurement": "acetylcholine endothelium-dependent relaxation of aortic vessel", "setting": "200 mg/kg, 1 × 10^−7 M Ach", "result": "64.2 ± 17.7", "unit": "%"}, {"measurement": "sodium nitroprusside endothelium-independent relaxation of aortic vessel", "setting": "200 mg/kg, 1 × 10^−7 M SNP", "result": "73.6 ± 23.3", "unit": "%"}, {"measurement": "acetylcholine endothelium-dependent relaxation of aortic vessel", "setting": "200 mg/kg, 1 × 10^−8 M Ach", "result": "47.6 ± 22.5", "unit": "%"}, {"measurement": "sodium nitroprusside endothelium-independent relaxation of aortic vessel", "setting": "200 mg/kg, 1 × 10^−8 M SNP", "result": "62.3 ± 22.7", "unit": "%"}, {"measurement": "acetylcholine endothelium-dependent relaxation of aortic vessel", "setting": "200 mg/kg, 1 × 10^−9 M Ach", "result": "31.4 ± 18.5", "unit": "%"}, {"measurement": "sodium nitroprusside endothelium-independent relaxation of aortic vessel", "setting": "200 mg/kg, 1 × 10^−9 M SNP", "result": "30.5 ± 20.8", "unit": "%"}, {"measurement": "acetylcholine endothelium-dependent relaxation of aortic vessel", "setting": "200 mg/kg, 1 × 10^−10 M Ach", "result": "9.4 ± 3.9", "unit": "%"}, {"measurement": "sodium nitroprusside endothelium-independent relaxation of aortic vessel", "setting": "200 mg/kg, 1 × 10^−10 M SNP", "result": "12.4 ± 8.4", "unit": "%"}]}
